Earlier results as cited in US20090246276A1, “Pharmaceutical Compositions” (priority 2008, published 2009).
Like-named read-outs stand apart in the source and are kept apart here.

Test system: patients diagnosed with MDD
Conditions: citalopram non-responders, cited from earlier work

CC(NC(C)(C)C)C(=O)c1cccc(Cl)c1 (centres unmarked) [Bupropion, bupropion]
remission rate (bupropion added on to the existing citalopram treatment): 30%
remission rate (switched to bupropion): 20%
